{"source": "paper PMC12706144", "about": "“Potential Antidiabetic Inhibitors and Antimicrobials from the Fungus Fusarium lichenicola Isolated from the Cicada Cryptotympana mandarina Distant, 1891” (Journal of Microbiology and Biotechnology, 2025)", "key": {"[1]": {"system": "S. aureus, B. subtilis, E. coli, S. cerevisiae", "conditions": "cited from earlier work"}, "[2]": {"target": "T1, α-amylase (Sus scrofa, UniProt P00690)", "T1 sequence (P00690 16-511)": "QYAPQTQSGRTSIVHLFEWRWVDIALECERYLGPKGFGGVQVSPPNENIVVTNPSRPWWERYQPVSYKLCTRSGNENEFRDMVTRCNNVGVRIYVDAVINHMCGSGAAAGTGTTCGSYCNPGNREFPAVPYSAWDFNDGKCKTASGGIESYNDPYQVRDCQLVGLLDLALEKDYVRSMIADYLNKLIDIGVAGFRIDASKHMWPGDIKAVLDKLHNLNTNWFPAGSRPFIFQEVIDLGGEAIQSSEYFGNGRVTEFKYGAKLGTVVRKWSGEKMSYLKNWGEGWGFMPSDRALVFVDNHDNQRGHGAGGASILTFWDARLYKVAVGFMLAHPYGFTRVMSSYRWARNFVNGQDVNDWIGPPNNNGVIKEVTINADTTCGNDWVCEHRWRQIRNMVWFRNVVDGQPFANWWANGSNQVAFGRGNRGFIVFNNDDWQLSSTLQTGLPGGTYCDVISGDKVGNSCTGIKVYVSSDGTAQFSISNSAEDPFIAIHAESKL", "assay": "α-Amylase inhibitory assay (starch azure)", "format": "biochemical", "conditions": "Table 4, reference compounds, independent experiment; read-out: IC50, α-Amylase inhibition"}, "[3]": {"target": "α-glucosidase (Saccharomyces cerevisiae, UniProt P53341)", "sequence (P53341 whole entry, looked up)": "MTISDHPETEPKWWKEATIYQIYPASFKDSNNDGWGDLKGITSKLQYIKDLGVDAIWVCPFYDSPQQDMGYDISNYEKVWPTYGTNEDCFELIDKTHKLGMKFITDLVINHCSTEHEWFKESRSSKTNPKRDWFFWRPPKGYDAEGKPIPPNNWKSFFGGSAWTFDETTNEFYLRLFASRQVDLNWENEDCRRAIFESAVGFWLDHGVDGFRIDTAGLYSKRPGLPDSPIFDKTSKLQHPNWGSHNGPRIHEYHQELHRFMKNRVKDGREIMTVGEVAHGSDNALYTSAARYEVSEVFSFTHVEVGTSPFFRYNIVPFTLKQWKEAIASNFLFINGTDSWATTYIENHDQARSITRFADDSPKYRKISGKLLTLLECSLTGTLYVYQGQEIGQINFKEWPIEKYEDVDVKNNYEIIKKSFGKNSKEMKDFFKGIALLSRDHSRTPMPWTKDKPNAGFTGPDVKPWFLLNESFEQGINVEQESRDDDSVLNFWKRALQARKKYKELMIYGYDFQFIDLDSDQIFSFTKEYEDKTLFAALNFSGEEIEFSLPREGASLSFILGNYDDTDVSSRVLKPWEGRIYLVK", "format": "biochemical", "conditions": "Table 4, reference compounds, independent experiment; read-out: IC50, α-Glucosidase inhibition"}, "[4]": {"system": "various bacterial pathogens", "set-up": "method as in PMID 34394014", "conditions": "cited from earlier work"}, "[5]": {"system": "Gram-positive and Gram-negative bacteria and fungi", "conditions": "cited from earlier work"}, "[6]": {"system": "S. aureus, B. subtilis, E. coli, and Klebsiella pneumoniae", "conditions": "cited from earlier work"}}, "data": [{"smiles": "C=C(C)C1CC=C(C)CC1", "note": "(stereo not drawn) [C4, 4-Isopropenyl-1-methylcyclohexene]", "values": [{"measurement": "MICs", "setting": "[1]", "result": "0.5 to 1.0", "unit": "µg/mL"}]}, {"smiles": "CSSSC", "note": "[C11, Dimethyltrisulfane]", "values": [{"measurement": "IC50", "setting": "[2]", "result": "332 ± 23", "unit": "µM"}, {"measurement": "IC50", "setting": "[3]", "result": "462 ± 44", "unit": "µM"}, {"measurement": "antimicrobial activity", "setting": "[4]", "result": "promising antimicrobial activity"}]}, {"smiles": "CCCCCC/C=C\\CCCCCCCC(=O)O", "note": "[C22, Palmitoleic acid]", "values": [{"measurement": "antimicrobial activity", "setting": "[5]", "result": "antimicrobial activity"}]}, {"smiles": "CCCCCCCCCCCCCCCC(=O)O", "note": "[C21, n-Hexadecanoic acid]", "values": [{"measurement": "antibacterial effects", "setting": "[6]", "result": "good antibacterial effects"}]}]}
